The record followed here is patent publication US7998951B2, “HCV NS5B inhibitors” (Bristol-Myers Squibb Company, priority 2007, dated 2011).

Where only a bound is given, the exact number is not on record here.

In one test the test system is HCV replicon cells. Description: HCV replicon FRET assay. In kind it is cell-based. The conditions noted are these: Hepatitis C virus. The text has this: FRET Assay Preparation. To perform the HCV FRET screening assay, 96-well cell culture plates were used. The FRET peptide (Anaspec, Inc.) (Taliani et al., Anal. Biochem. 1996, 240, 60-67) contains a fluorescence donor, EDANS, near one end of the peptide and an acceptor, DABCYL, near the other end. The fluorescence of the peptide is quenched by […] resonance energy transfer (RET) between the donor and the acceptor, but as the NS3 protease cleaves the peptide the products are released from RET quenching and the fluorescence of the donor becomes apparent. The assay reagent was made as follows: 5× cell Luciferase cell culture lysis reagent from Promega (#E153A) diluted to 1× with dH2O, NaCl added to 150 mM final, the FRET peptide diluted to 20 uM final from a 2 mM stock.
To prepare plates, HCV replicon cells, with or without a Renilla luciferase reporter gene, were trypsinized and placed into each well of a 96-well plate with titrated test compounds added in columns 3 through 12; columns 1 and 2 contained a control compound (HCV protease inhibitor), and the bottom row contained cells without compound. The plates were then placed in a CO2 incubator at 37° C.
Assays. Subsequent to addition of the test compounds described above (FRET Assay Preparation), at various times the plate was removed and Alamar blue solution (Trek Diagnostics, #00-100) was added per well as a measure of cellular toxicity. After reading in a Cytoflour 4000 instrument (PE Biosystems), plates were rinsed with PBS and then used for FRET assay by the addition of 30 ul of the FRET peptide assay reagent described above (FRET Assay Preparation) per well. The plate was then placed into the Cytoflour 4000 instrument which had been set to 340 excite/490 emission, automatic mode for 20 cycles and the plate read in a kinetic mode. Typically, the signal to noise using an endpoint analysis after the reads was at least three-fold. Alternatively, after Alamar blue reading, plates were rinsed with PBS, 50 ul of DMEM (high glucose) without phenol red was added and plates were then used for luciferase assay using the Promega Dual-Glo Luciferase Assay System.
Compound analysis was determined by quantification of the relative HCV replicon inhibition and the relative cytotoxicity values. To calculate cytoxicity values, the average Alamar Blue fluorescence signals from the control wells were set as 100% non-toxic. The individual signals in each of the compound test wells were then divided by the average control signal and multiplied by 100% to determine […]. To calculate the HCV replicon inhibition values, an average background value was obtained from the two wells containing the highest amount of HCV protease inhibitor at the end of the assay period. These numbers were similar to those obtained from naïve Huh-7 cells.
The background numbers were then subtracted from the average signal obtained from the control wells and this number was used as 100% activity. The individual signals in each of the compound test wells were then divided by the averaged control values after background subtraction and multiplied by 100% to determine percent activity. EC50 values for a protease inhibitor titration were calculated as the concentration which caused a 50% reduction in FRET or luciferase activity. The two numbers generated for the compound plate, percent cytotoxicity and percent activity were used to determine compounds of interest for further analysis.
(In antiviral work, replicon cells carry a viral genome segment that copies itself.)

The target of test [1] is T1, HCV NS5B RdRp genotype 1b (Hepatitis C virus genotype 1b, UniProt Q9WMX2).
T1 construct: The protein was expressed with an 18 amino acid C-terminal truncation to enhance the solubility; made in house; host or cells: E. coli BL21 (DE3)
T1 sequence (Q9WMX2 2420-2992): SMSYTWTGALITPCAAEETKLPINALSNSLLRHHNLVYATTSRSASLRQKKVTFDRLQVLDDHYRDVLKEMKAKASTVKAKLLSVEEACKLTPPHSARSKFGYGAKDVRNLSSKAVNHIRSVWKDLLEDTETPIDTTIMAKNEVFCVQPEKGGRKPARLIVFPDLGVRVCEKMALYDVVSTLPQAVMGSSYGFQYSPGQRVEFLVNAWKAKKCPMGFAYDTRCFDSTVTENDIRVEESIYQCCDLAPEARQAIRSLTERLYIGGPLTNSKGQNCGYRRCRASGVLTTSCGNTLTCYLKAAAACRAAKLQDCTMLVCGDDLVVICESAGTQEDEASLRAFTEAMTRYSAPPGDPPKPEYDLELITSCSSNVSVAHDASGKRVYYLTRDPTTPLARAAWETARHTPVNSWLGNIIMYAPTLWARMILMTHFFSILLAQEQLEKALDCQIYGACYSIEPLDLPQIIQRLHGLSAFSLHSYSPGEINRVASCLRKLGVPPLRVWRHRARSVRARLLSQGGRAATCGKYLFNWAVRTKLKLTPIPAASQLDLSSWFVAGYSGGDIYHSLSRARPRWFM
Nature of the test: HCV NS5B RdRp enzyme assay (preincubation protocol). In kind it is biochemical. As for the experimental part:
HCV NS5B RdRp cloning, expression, and purification. The cDNA encoding the NS5B protein of HCV, genotype 1b, was cloned into the pET21a expression vector. The protein was expressed with an 18 amino acid C-terminal truncation to enhance the solubility. The E. coli competent cell line BL21 (DE3) was used for expression of the protein. Cultures were grown at 37° C. for ˜4 hours until the cultures reached an optical density of 2.0 at 600 nm. The cultures were cooled to 20° C. and induced with 1 mM IPTG. Fresh ampicillin was added to a final concentration of 50 μg/ml and the cells were grown overnight at 20° C.
Cell pellets (3 L) were lysed for purification to yield 15-24 mgs of purified NS5B. The lysis buffer consisted of 20 mM Tris-HCl, pH 7.4, 500 mM NaCl, 0.5% triton X-100, 1 mM DTT, 1 mM EDTA, 20% glycerol, 0.5 mg/ml lysozyme, 10 mM MgCl2, 15 ug/ml deoxyribonuclease I, and Complete TM protease inhibitor tablets (Roche). After addition of the lysis buffer, frozen cell pellets were resuspended using a tissue homogenizer. To reduce the viscosity of the sample, aliquots of the lysate were sonicated on ice using a microtip attached to a Branson sonicator. The sonicated lysate was centrifuged at 100,000×g for 1 hr at 4° C. and filtered through a 0.2 μm filter unit (Corning).
The protein was purified using three sequential chromatography steps: Heparin sepharose CL-6B, polyU sepharose 4B, and Hitrap SP sepharose (Pharmacia). The chromatography buffers were identical to the lysis buffer but contained no lysozyme, deoxyribonuclease I, MgCl2 or protease inhibitor and the NaCl concentration of the buffer was adjusted according to the requirements for charging the protein onto the column. Each column was eluted with a NaCl gradient which varied in length from 5-50 column volumes depending on the column type. After the final chromatography step, the resulting purity of the enzyme is >90% based on SDS-PAGE analysis. The enzyme was aliquoted and stored at −80° C.
Standard HCV NS5B RdRp enzyme assay. HCV RdRp genotype 1b assays were run in a final volume of 60 μl in 96 well plates (Costar 3912). The assay buffer is composed of 20 mM Hepes, pH 7.5, 2.5 mM KCl, 2.5 mM MgCl2, 1 mM DTT, 1.6 U RNAse inhibitor (Promega N2515), 0.1 mg/ml BSA (Promega R3961), and 2% glycerol. All compounds were serially diluted (3-fold) in DMSO and diluted further in water such that the final concentration of DMSO in the assay was 2%. HCV RdRp genotype 1b enzyme was used at a final concentration of 28 nM. A polyA template was used at 6 nM, and a biotinylated oligo-dT12 primer was used at 180 nM final concentration. Template was obtained commercially (Amersham 27-4110). Biotinylated primer was prepared by Sigma Genosys. 3H-UTP was used at 0.6 μCi (0.29 μM total UTP). Reactions were initiated by the addition of enzyme, incubated at 30° C. for 60 min, and stopped by adding 25 μl of 50 mM EDTA containing SPA beads (4 μg/μl, Amersham RPNQ 0007). Plates were read on a Packard Top Count NXT after >1 hr incubation at room temperature.
Modified HCV NS5B RdRp enzyme assay. A modified enzyme assay was performed essentially as described for the standard enzyme assay except for the following: The biotinylated oligo dT12 primer was precaptured on streptavidin-coated SPA beads by mixing primer and beads in assay buffer and incubating at room temperature for one hour. Unbound primer was removed after centrifugation. The primer-bound beads were resuspended in 20 mM Hepes buffer, pH 7.5 and used in the assay at final concentrations of 20 nM primer and 0.67 μg/μl beads. Order of addition in the assay: enzyme (14 nM) was added to diluted compound followed by the addition of a mixture of template (0.2 nM), 3H-UTP (0.6 μCi, 0.29 μM), and primer-bound beads, to initiate the reaction; concentrations given are final. Reactions were allowed to proceed for 4 hours at 30° C.
IC50 values for compounds were determined using seven different [I]. […]

On to `COC(=O)c1ccc2c(C3CCCCC3)c(-c3ccccc3)n3c2c1CCC3C(=O)N1CCOCC1` (stereo not drawn), for which, in the test on HCV replicon cells, the concentration giving a half-maximal response (EC50) is greater than 120 nM. For the same compound, in test [1], the 50% inhibitory concentration (IC50) is greater than 1000 nM.
The matching figures for `COc1ccc(-c2c(C3CCCCC3)c3ccc(C(=O)NC4(C(=O)Nc5ccc(C=CC(=O)O)cc5)CCCC4)c4c3n2CCO4)cc1`: 30 to 1000 nM and 30 to 1000 nM.
In the test with HCV replicon cells, `C[C@@H]1CN(C(=O)C2CCc3c(C(=O)O)ccc4c(C5CCCCC5)c(-c5ccccc5)n2c34)C[C@H](C)O1` (stereo partly drawn) showed an EC50 of 1000 to 10000 nM. Further, in test [1], the IC50 is greater than 1000 nM.
The matching figures for `O=C(O)c1ccc2c(C3CCCCC3)c(-c3ccccc3)n3c2c1CCC3C(=O)N1CCOCC1` (stereo not drawn): 30 to 1000 nM and 30 to 1000 nM.
Taken in the same sequence, the figures for `O=C(O)c1ccc2c(C3CCCCC3)c(-c3ccccc3)n3c2c1CCCC3` were greater than 1000 nM and greater than 1000 nM.
`COc1ccc(-c2c(C3CCCCC3)c3ccc(C(=O)O)c4c3n2CCO4)cc1` returned an EC50 in the test with HCV replicon cells of 1000 to 10000 nM. In test [1], this compound registered an IC50 of 30 to 1000 nM.
Taken in the same sequence, the figures for `CCOC(=O)/C=C/c1ccc(NC(=O)C2(NC(=O)c3ccc4c(C5CCCCC5)c(-c5ccccc5)n5c4c3CCC5C(=O)N3CCOCC3)CCCC2)cc1` (stereo not drawn) were 30 to 1000 nM and 1000 to 10000 nM.
The compound `O=C(O)c1ccc2c(C3CCCCC3)c(-c3ccccc3)n3c2c1OCC3` came in with an EC50 in the test with HCV replicon cells of 1000 to 10000 nM. In test [1], this compound had an IC50 of 30 to 1000 nM.
The compound `COC(=O)c1ccc2c(C3CCCCC3)c(-c3ccccc3)n3c2c1C=CCC3` came in with a 50% effective concentration (EC50) with HCV replicon cells greater than 120 nM. The compound further returned a half-maximal inhibitory concentration (IC50) in test [1] greater than 10000 nM.
The matching figures for `O=C(O)c1ccc2c(C3CCCCC3)c(-c3ccccc3)n3c2c1CCC3C(=O)O` (stereo not drawn): greater than 10000 nM and greater than 1000 nM.
`CCOC(=O)/C=C/c1ccc(NC(=O)C2(NC(=O)c3ccc4c(C5CCCCC5)c(-c5ccccc5)n5c4c3OCC5)CCCC2)cc1` returned an EC50 with HCV replicon cells greater than 1000 nM. For the same compound, the IC50 in test [1] fell in the range of 30 to 1000 nM.
The matching figures for `COC(=O)c1ccc2c(C3CCCCC3)c(-c3ccccc3)n3c2c1OCC3`: greater than 120 nM and 1000 to 10000 nM.
For `COC(=O)c1ccc2c(C3CCCCC3)c(-c3ccccc3)n3c2c1CCC3C(=O)OC` (stereo not drawn), in the test on HCV replicon cells, the EC50 is greater than 1000 nM. The compound further registered an IC50 in test [1] greater than 10000 nM.
In the test on HCV replicon cells, `O=C(NS(=O)(=O)C1CC1)c1ccc2c(C3CCCCC3)c(-c3ccccc3)n3c2c1CCC3C(=O)N1CCOCC1` (stereo not drawn) gave an EC50 greater than 10000 nM. The IC50 in test [1] is 1000 to 10000 nM.
In the test with HCV replicon cells, `O=C(O)c1ccc2c(C3CCCCC3)c(-c3ccccc3)n3c2c1C=CCC3` yielded an EC50 greater than 1000 nM. The concentration for half-maximal inhibition (IC50) in test [1] is greater than 1000 nM.
`O=C(O)/C=C/c1ccc(NC(=O)C2(NC(=O)c3ccc4c(C5CCCCC5)c(-c5ccccc5)n5c4c3CCC5C(=O)N3CCOCC3)CCCC2)cc1` (stereo not drawn) registered an EC50 in the test on HCV replicon cells of 1000 to 10000 nM. For the same compound, the half-maximal inhibitory concentration (IC50) in test [1] lay within 30 to 1000 nM.
For `COC(=O)c1ccc2c(C3CCCCC3)c(-c3ccccc3)n3c2c1OC(C(=O)OC)C3` (stereo not drawn), in the test on HCV replicon cells, the EC50 was greater than 1000 nM. This compound had an IC50 in test [1] greater than 1000 nM.
In the test with HCV replicon cells, `COC(=O)c1ccc2c(C3CCCCC3)c(-c3ccccc3)n3c2c1CCC3` yielded an EC50 greater than 120 nM. This compound also showed an IC50 in test [1] greater than 10000 nM.
For `CN(C)S(=O)(=O)NC(=O)c1ccc2c(C3CCCCC3)c(-c3ccccc3)n3c2c1OCC3`, the half-maximal effective concentration (EC50) with HCV replicon cells was 1000 to 10000 nM. The compound also gave an IC50 in test [1] of 1000 to 10000 nM.
As to `O=C(O)/C=C\c1ccc(NC(=O)C2(NC(=O)c3ccc4c(C5CCCCC5)c(-c5ccccc5)n5c4c3OCC5)CCCC2)cc1`, the EC50 with HCV replicon cells is 30 to 1000 nM. In test [1], this compound displayed an IC50 of 30 to 1000 nM.
Turning to `CN(C)S(=O)(=O)NC(=O)c1ccc2c(C3CCCCC3)c(-c3ccccc3)n3c2c1CCC3C(=O)N1CCOCC1` (stereo not drawn), the EC50 in the test with HCV replicon cells was 1000 to 10000 nM. In addition, the IC50 in test [1] was in the range of 1000 to 10000 nM.
Consider `CCOC(=O)/C=C/c1ccc(NC(=O)C2(NC(=O)c3ccc4c(C5CCCCC5)c(-c5ccc(OC)cc5)n5c4c3OCC5)CCCC2)cc1`, for which the concentration for a half-maximal effect (EC50) in the test with HCV replicon cells was greater than 1000 nM. Besides, in test [1], the half-inhibitory concentration (IC50) was in the range of 30 to 1000 nM.
The matching figures for `O=C(O)/C=C/c1ccc(NC(=O)C2(NC(=O)c3ccc4c(C5CCCCC5)c(-c5ccccc5)n5c4c3OCC5)CCCC2)cc1`: 30 to 1000 nM and 30 to 1000 nM.
Taken in the same sequence, the figures for `COC(=O)c1ccc2c(C3CCCCC3)c(-c3ccccc3)n3c2c1CCC3C(=O)O` (stereo not drawn) were greater than 120 nM and greater than 1000 nM.

In general, EC50 refers to the concentration giving half of the maximal effect. A word on the IC50: it is the concentration at which inhibition is half-maximal. Low readings indicate greater potency in that assay, high ones weaker potency in that assay.
